Experimental data taken from PubChem BioAssay (NCI).
“And” between values parts separate entries of the source, which are not always exact repeats. Equal values may be shown once.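 Exposure lasted 48 hours, with cells grown in 96-well plates and compounds tested at five concentrations. At the GI50, growth is halved. The concentration for full growth arrest is given as TGI.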

Key:
Test in all cases: NCI tumour cell line growth inhibition, 48 h
SF-539 CNS = tested on: SF-539 CNS
TK-10 renal = tested on: TK-10 renal
SK-MEL-2 melanoma = tested on: SK-MEL-2 melanoma
786-0 renal = tested on: 786-0 renal
HCT-15 colon = tested on: HCT-15 colon
NCI-H226 lung = tested on: NCI-H226 lung
SW-620 colon = tested on: SW-620 colon
U251 CNS = tested on: U251 CNS
SK-MEL-28 melanoma = tested on: SK-MEL-28 melanoma
LOX IMVI melanoma = tested on: LOX IMVI melanoma

## COc1ccc2c(c1)C(=O)c1c-2n(CCCN=[N+]=[N-])c(=O)c2cc(N(C)C)ccc12
SF-539 CNS
  GI50: 17.6 µM
  TGI: > 100 µM
TK-10 renal
  GI50: > 100 µM
  TGI: > 100 µM
SK-MEL-2 melanoma
  GI50: > 100 µM
  TGI: > 100 µM
786-0 renal
  GI50: 29.5 µM
  TGI: > 100 µM
HCT-15 colon
  GI50: > 100 µM
  TGI: > 100 µM
NCI-H226 lung
  GI50: > 100 µM
  TGI: > 100 µM
SW-620 colon
  GI50: > 100 µM
  TGI: > 100 µM
U251 CNS
  GI50: 19.5 µM
  TGI: > 100 µM
SK-MEL-28 melanoma
  GI50: > 100 µM
  TGI: > 100 µM
LOX IMVI melanoma
  GI50: > 100 µM
  TGI: > 100 µM

## COc1ccc(-c2cc(=O)c3c(C)cc(C)nc3[nH]2)cc1
SF-539 CNS
  TGI: > 100 µM
TK-10 renal
  TGI: 99.2 µM
SK-MEL-2 melanoma
  TGI: > 100 µM
786-0 renal
  GI50: 58.8 µM
  TGI: > 100 µM
HCT-15 colon
  TGI: > 100 µM
NCI-H226 lung
  TGI: > 100 µM
SW-620 colon
  TGI: > 100 µM
U251 CNS
  GI50: 90.7 µM
  TGI: > 100 µM
SK-MEL-28 melanoma
  TGI: > 100 µM
LOX IMVI melanoma
  TGI: > 100 µM

## C=CCN(/C=C1/C(=O)O[C@H](COC)[C@@]2(C)C1=C(O)C(=O)C1=C2[C@H](OC(C)=O)C[C@]2(C)C(=O)CC[C@@H]12)CC=C
SF-539 CNS
  GI50: 0.692 µM
  TGI: > 5.24 µM
TK-10 renal
  GI50: 0.193 µM
  TGI: > 7.79 µM
SK-MEL-2 melanoma
  GI50: 1.22 µM
  TGI: > 6.23 µM
786-0 renal
  GI50: 0.379 µM
  TGI: > 10 µM
HCT-15 colon
  GI50: 1.19 µM
  TGI: > 10 µM
NCI-H226 lung
  GI50: 2.57 µM
  TGI: > 10 µM
SW-620 colon
  GI50: 2.17 µM
  TGI: > 10 µM
U251 CNS
  GI50: 2.12 µM
  TGI: > 10 µM
SK-MEL-28 melanoma
  GI50: 1.1 µM
  TGI: > 10 µM
LOX IMVI melanoma
  GI50: 1.65 µM
  TGI: > 10 µM

## COc1ccccc1N=C(N)N/N=C/c1c[nH]c2ccccc12
SF-539 CNS
  TGI: 26.4 µM
TK-10 renal
  TGI: 30.9 µM
SK-MEL-2 melanoma
  TGI: 19.2 µM
786-0 renal
  TGI: 26 µM
HCT-15 colon
  TGI: 15.7 µM
NCI-H226 lung
  TGI: 28.5 µM
SW-620 colon
  TGI: 10.4 µM
U251 CNS
  TGI: 24.2 µM
SK-MEL-28 melanoma
  TGI: 16.3 µM
LOX IMVI melanoma
  TGI: 22.6 µM

## Cc1c(S(C)(=O)=O)c(-c2cc(F)cc(N3CCN(c4ccc(NS(=O)(=O)c5ccc(N[C@H](CCN6CCC(C(=O)OCCCP(=O)(O)O)CC6)CSc6ccccc6)c(S(=O)(=O)C(F)(F)F)c5)cc4)CC3)c2)c(-c2ccc(Cl)cc2)n1C(C)C
SF-539 CNS
  GI50: > 100 µM
  TGI: > 100 µM
TK-10 renal
  GI50: 25.8 µM
  TGI: > 100 µM
SK-MEL-2 melanoma
  GI50: > 100 µM
  TGI: > 100 µM
786-0 renal
  GI50: > 100 µM
  TGI: > 100 µM
HCT-15 colon
  GI50: > 100 µM
  TGI: > 100 µM
NCI-H226 lung
  GI50: > 100 µM
  TGI: > 100 µM
SW-620 colon
  GI50: > 100 µM
  TGI: > 100 µM
U251 CNS
  GI50: > 100 µM
  TGI: > 100 µM
SK-MEL-28 melanoma
  GI50: > 100 µM
  TGI: > 100 µM
LOX IMVI melanoma
  GI50: > 100 µM
  TGI: > 100 µM

## CC(=O)Nc1ccc(C(=O)NN2C(=O)C(Cl)C2c2ccc([N+](=O)[O-])cc2)cc1 (stereo not given)
SF-539 CNS
  TGI: > 100 µM
TK-10 renal
  TGI: > 100 µM
SK-MEL-2 melanoma
  TGI: > 100 µM
786-0 renal
  TGI: > 100 µM
HCT-15 colon
  TGI: > 100 µM
NCI-H226 lung
  TGI: > 100 µM
SW-620 colon
  TGI: > 100 µM
U251 CNS
  TGI: > 100 µM
SK-MEL-28 melanoma
  TGI: > 100 µM
LOX IMVI melanoma
  TGI: > 100 µM

## COc1cc(/C=C2\CCC/C(=C\c3cc(OC)c(O)c(OC)c3)C2=O)cc(OC)c1O
SF-539 CNS
  TGI: > 100 µM
TK-10 renal
  TGI: > 100 µM
SK-MEL-2 melanoma
  GI50: 1.63 µM
  TGI: 11.8 µM and 4.19 µM
786-0 renal
  GI50: 3.9 µM
HCT-15 colon
  TGI: 3.45 µM
NCI-H226 lung
  GI50: 3.91 µM
  TGI: 47.9 µM and > 100 µM
SW-620 colon
  TGI: 75 µM and > 100 µM
U251 CNS
  TGI: 2.76 µM and 3.14 µM
SK-MEL-28 melanoma
  GI50: 3.12 µM
  TGI: 75 µM and 24.8 µM
LOX IMVI melanoma
  GI50: 1.53 µM

## CCOC(=O)C1=C(c2ccccc2)N(C)c2ccccc2S1
SF-539 CNS
  TGI: > 100 µM
TK-10 renal
  TGI: > 100 µM
SK-MEL-2 melanoma
  TGI: 45.3 µM
786-0 renal
  TGI: > 100 µM
HCT-15 colon
  TGI: 31.3 µM
NCI-H226 lung
  TGI: 54.1 µM
SW-620 colon
  TGI: > 100 µM
U251 CNS
  TGI: 49.1 µM
SK-MEL-28 melanoma
  TGI: > 100 µM
LOX IMVI melanoma
  TGI: 30.3 µM

## Cc1ccc(/C(=N\N=C(N)N)c2ccccc2)cc1
SF-539 CNS
  GI50: 0.265 µM
  TGI: 0.925 µM
TK-10 renal
  GI50: 0.549 µM
  TGI: 15.1 µM
SK-MEL-2 melanoma
  GI50: 5.02 µM
  TGI: 28.7 µM
786-0 renal
  GI50: 0.594 µM
  TGI: 12.1 µM
HCT-15 colon
  GI50: 0.371 µM
  TGI: 11.5 µM
NCI-H226 lung
  GI50: 0.726 µM
  TGI: 10.1 µM
SW-620 colon
  GI50: 0.418 µM
  TGI: 19.1 µM
U251 CNS
  GI50: 0.365 µM
  TGI: 11.5 µM
SK-MEL-28 melanoma
  GI50: 0.535 µM
  TGI: 15.4 µM
LOX IMVI melanoma
  GI50: 0.611 µM
  TGI: 12.5 µM

## C[C@H](NC(=O)[C@@H]1CSSC[C@@H](NC(=O)c2nc3ccccc3cc2O)C(=O)NCC(=O)N1C)c1ccccc1
SF-539 CNS
  GI50: 1.63 µM
  TGI: 9.13 µM
TK-10 renal
  GI50: 8.06 µM
  TGI: 15.5 µM
SK-MEL-2 melanoma
  GI50: 2.55 µM
  TGI: 10.1 µM
786-0 renal
  GI50: 2.45 µM
  TGI: 9.78 µM
HCT-15 colon
  GI50: 2.55 µM
  TGI: 9.62 µM
NCI-H226 lung
  GI50: 8.87 µM
  TGI: 17.4 µM
SW-620 colon
  GI50: 1.85 µM
  TGI: 6.26 µM
U251 CNS
  GI50: 2.38 µM
  TGI: 7.46 µM
SK-MEL-28 melanoma
  GI50: 0.906 µM
  TGI: 9.83 µM
LOX IMVI melanoma
  GI50: 0.649 µM
  TGI: 1.52 µM

## C=C(CCCCCCCCC)CC(=O)SCCNC(=O)CCNC(=O)C(O)C(C)(C)COP(=O)(O)OP(=O)(O)OCC1OC(n2cnc3c(N)ncnc32)C(O)C1OP(=O)(O)O (stereo not given)
SF-539 CNS
  TGI: > 85.6 µM
TK-10 renal
  TGI: > 100 µM
SK-MEL-2 melanoma
  TGI: 99.3 µM
786-0 renal
  TGI: > 100 µM
HCT-15 colon
  TGI: > 100 µM
NCI-H226 lung
  TGI: > 100 µM
SW-620 colon
  TGI: > 100 µM
U251 CNS
  TGI: > 100 µM
SK-MEL-28 melanoma
  TGI: 21.6 µM
LOX IMVI melanoma
  TGI: 75.7 µM
